Source: patent US12291534B2, “Aminonorbornane derivative and manufacture method therefor and use thereof” (TRANSTHERA SCIENCES (NANJING), INC., priority 2018, dated 2025)
pIC50: −log10 of the molar value.

Columns and labels:
OCI-LY10 xenograft tumor = OCI-LY10 xenograft tumor model in CB17/SCID mice; format: in vivo; conditions: for anti-tumor activity (in words): OCI-LY10 xenograft tumor model
Method: (§1) CB17/SCID female mice with serious immune deficiency were purchased from Beijing Vital River Laboratory Animal Technology Co., Ltd. and bred in SPF animal houses. Human OCI-LY10 cells (Shanghai Junrui-UFBN0102) were cultured in an RPMI 1640 culture medium containing 10% fetal bovine serum, 100 U/mL penicillin and 100 μg/mL streptomycin through monolayer culture in vitro in an incubator (37° C. 5% CO2). Routine treatment was performed twice a week for passaging. At a cell saturation of 80%-90% and a required number, the cells were harvested and counted, 0.2 mL (1×10^7) of OCI-LY10 cells (together with matrigel at a volume ratio of 1:1) were subcutaneously inoculated into the right back of each mouse, and the tumor size could be measured about one week after inoculation. Tumor size was measured using a vernier caliper and tumor volume was calculated using the following formula: tumor volume=(length×width^2)/2.

TMD-8 xenograft tumor = TMD-8 xenograft tumor model in CB17/SCID mice; format: in vivo; conditions: for anti-tumor activity (in words): TMD-8 xenograft tumor model
Method: as §1, with “TMD-8” for “OCI-LY10”, “Junrui-UFBN1682)” for “Junrui-UFBN0102)”, “C.,” for “C.”, “volume […].” for “volume=(length×width^2)/2.”

TMD-8 = assay: In vitro tumor cell proliferation inhibition (CellTiter-Glo), TMD-8; format: cell-based, human
Method: (§2) 2. Experiment on In Vitro Tumor Cell Proliferation Inhibition (1) Method • The tumor cell line (TMD-8/OCY-LY10) was suspended in RPMI1640+FBS10% and cultured in an incubator (37° C. 5% CO2). Cells were passaged periodically, and cells at logarithmic growth phase were collected for plating. • Cell staining was performed with trypan blue and viable cells were counted. • Cell concentration was adjusted to 7000 cells/well with medium. • 90 μL of cell suspension was added to a 96-well plate and cell-free culture medium was added to the blank control wells. • Cells in the 96-well plate were incubated overnight in an incubator (37° C., 5% CO2, 100% relative humidity). • Preparation of 400× compound storage plates: test compounds and reference drug were each dissolved in DMSO and 3× diluted from the highest concentration (400 μM) to the lowest concentration (0.61 μM). • Preparation of 10× compound working solutions: 78 μL of cell culture medium was added to a V-bottom 96-well plate, and 2 μL of the compound was pipetted from the 400× compound storage plate into the 96-well plate. Vehicle control wells and blank control wells were added with 2 μL of DMSO. […] Inhibition rates of compounds at different concentrations were calculated in Excel, followed by plotting the inhibition curves and calculating IC50 values with GraphPad Prism. […]

OCI-LY10 = assay: In vitro tumor cell proliferation inhibition (CellTiter-Glo), OCI-LY10; format: cell-based, human
Method: as §2

BTK (C481S) = BTK (C481S) (Homo sapiens (Human), UniProt Q06187, C481S); assay: pBTK inhibition in HEK293 cells transfected with BTK(C481S) (ELISA); format: cell-based; conditions: 2 h incubation
Method: For positive (high signal) controls, cells were treated with 0.5% DMSO alone.

BTK (C481S), sequence (Q06187 whole entry C481S): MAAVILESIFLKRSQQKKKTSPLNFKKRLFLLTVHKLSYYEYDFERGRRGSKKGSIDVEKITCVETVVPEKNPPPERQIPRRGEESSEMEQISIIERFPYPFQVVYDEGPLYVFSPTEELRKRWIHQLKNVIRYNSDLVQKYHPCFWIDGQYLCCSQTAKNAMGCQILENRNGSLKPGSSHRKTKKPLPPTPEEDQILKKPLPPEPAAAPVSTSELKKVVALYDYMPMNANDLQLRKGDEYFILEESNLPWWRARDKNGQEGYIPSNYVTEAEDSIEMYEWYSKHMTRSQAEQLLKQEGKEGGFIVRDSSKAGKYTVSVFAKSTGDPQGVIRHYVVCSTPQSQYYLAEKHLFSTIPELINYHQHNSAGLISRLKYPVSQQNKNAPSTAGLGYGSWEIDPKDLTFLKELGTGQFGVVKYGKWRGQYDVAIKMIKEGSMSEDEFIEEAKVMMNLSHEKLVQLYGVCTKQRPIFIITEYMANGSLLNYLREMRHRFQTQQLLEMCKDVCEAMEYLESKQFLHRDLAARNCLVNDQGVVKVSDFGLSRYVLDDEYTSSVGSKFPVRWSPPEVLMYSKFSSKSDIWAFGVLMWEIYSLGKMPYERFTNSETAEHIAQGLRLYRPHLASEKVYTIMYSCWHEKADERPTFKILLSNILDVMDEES

SMILES	anti-tumor activity (in words) (OCI-LY10 xenograft tumor)	anti-tumor activity (in words) (TMD-8 xenograft tumor)	inhibition of tumor cell proliferation (in words) (TMD-8)	inhibition of tumor cell proliferation (in words) (OCI-LY10)	disappearance of xenograft tumors (OCI-LY10 xenograft tumor; 25 mg/kg bid, after 28 days of administration)	disappearance of xenograft tumors (OCI-LY10 xenograft tumor; 50 mg/kg bid, after 21 days of administration)	tolerance of tumor-bearing mice (OCI-LY10 xenograft tumor; all dosages (25, 50 mg/kg bid))	body weight of tumor-bearing mice (OCI-LY10 xenograft tumor; all treatment groups)	fraction of xenograft tumors disappeared (TMD-8 xenograft tumor; 50 mg/kg bid, after 27 days of administration)	tolerance of tumor-bearing mice (TMD-8 xenograft tumor; all dosages (25, 50 mg/kg bid))	body weight of tumor-bearing mice (TMD-8 xenograft tumor; all treatment groups)	pIC50 (BTK (C481S))
C=CC(=O)N1CCC[C@@H](n2nc(-c3ccc(Oc4ccccc4)cc3)c3c(N)ncnc32)C1 [Ibrutinib, reference compound]	extremely strong anti-tumor activity	extremely strong anti-tumor activity	strong inhibition activity	strong inhibition activity								
Nc1nccn2c(C34CCC(NC(=O)CN5CCOCC5)(CC3)C4)nc(-c3ccc(C(=O)Nc4cc(C(F)(F)F)ccn4)cc3)c12 [Compound A-10-10, 4-(8-amino-3-(4-(2-morpholinoacetamido)bicyclo[2.2.1]heptan-1-yl)imidazo[1,5-a]pyrazin-1-yl)-N-(4-(trifluoromethyl)pyridin-2-yl)benzamide]	extremely strong anti-tumor activity	extremely strong anti-tumor activity	strong inhibition activity	strong inhibition activity	disappeared completely	completely disappeared	good tolerance	no significant weight loss	⅝	good tolerance	no significant weight loss	7.20
